Measurements published in PubChem BioAssay (NCI).
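Step 1: Grow cells in 96-well plates. Step 2: Expose to compound for 48 hours at 5 concentrations. Step 3: Interpolate endpoints linearly; if unreached, use highest concentration. The concentration for 50% growth inhibition is given as GI50. At the TGI there is no net growth.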

Tests used:
Test in all cases: NCI anticancer screen, dose series, 48 h
LOX IMVI melanoma = tested on: LOX IMVI melanoma
MCF7 breast = tested on: MCF7 breast
NCI-H23 lung = tested on: NCI-H23 lung
UACC-257 melanoma = tested on: UACC-257 melanoma
UO-31 renal = tested on: UO-31 renal
HOP-62 NSCLC = tested on: HOP-62 NSCLC
SK-MEL-2 melanoma = tested on: SK-MEL-2 melanoma
HT29 colon = tested on: HT29 colon
HCT-15 colon = tested on: HCT-15 colon
DU-145 prostate = tested on: DU-145 prostate

CCN(CC)CCCC(C)Nc1ccnc(/C=C/c2ccc(Cl)cc2)c1 (stereo not given)
TGI (LOX IMVI melanoma): 3.28 µM | TGI (MCF7 breast): 4.84 µM | TGI (NCI-H23 lung): 23.7 µM | TGI (UACC-257 melanoma): 3.59 µM | TGI (UO-31 renal): 3.17 µM | TGI (HOP-62 NSCLC): 4.11 µM | TGI (SK-MEL-2 melanoma): 4.25 µM | TGI (HT29 colon): 6.44 µM | TGI (HCT-15 colon): 6.35 µM | TGI (DU-145 prostate): 17.6 µM

COc1cc(NCCC2CCCCN2)c2ncccc2c1OC (stereo not given)
GI50 (LOX IMVI melanoma): 1.95 µM | TGI (LOX IMVI melanoma): 5.49 µM | GI50 (MCF7 breast): 3.19 µM | TGI (MCF7 breast): 15.2 µM | GI50 (NCI-H23 lung): 7.09 µM | TGI (NCI-H23 lung): 31.3 µM | GI50 (UACC-257 melanoma): 2.79 µM | TGI (UACC-257 melanoma): 9.36 µM | GI50 (UO-31 renal): 14.9 µM | TGI (UO-31 renal): 36.7 µM | GI50 (HOP-62 NSCLC): 17.3 µM | TGI (HOP-62 NSCLC): 32.4 µM | GI50 (SK-MEL-2 melanoma): 3.13 µM | TGI (SK-MEL-2 melanoma): 9.07 µM | GI50 (HT29 colon): 13 µM | TGI (HT29 colon): 33.6 µM | GI50 (HCT-15 colon): 21.2 µM | TGI (HCT-15 colon): 85.5 µM | GI50 (DU-145 prostate): 13.1 µM | TGI (DU-145 prostate): 26.9 µM

CC1(C)CC[C@]2(CO)CC[C@]3(C)C(=CC[C@@H]4[C@@]5(C)CCNCC(C)(C)[C@@H]5CC[C@]43C)[C@@H]2C1
GI50 (LOX IMVI melanoma): 2.45 µM | TGI (LOX IMVI melanoma): 5.52 µM | GI50 (MCF7 breast): 3.07 µM | TGI (MCF7 breast): 13.3 µM | GI50 (NCI-H23 lung): 12.5 µM | TGI (NCI-H23 lung): 26.9 µM | GI50 (UACC-257 melanoma): 2.33 µM | TGI (UACC-257 melanoma): 5.79 µM | GI50 (UO-31 renal): 5.33 µM | TGI (UO-31 renal): 21.2 µM | GI50 (HOP-62 NSCLC): 3.65 µM | TGI (HOP-62 NSCLC): 15.3 µM | GI50 (SK-MEL-2 melanoma): 2.32 µM | TGI (SK-MEL-2 melanoma): 5.57 µM | GI50 (HT29 colon): 2.69 µM | TGI (HT29 colon): 9.4 µM | GI50 (HCT-15 colon): 2.16 µM | TGI (HCT-15 colon): 6.26 µM | GI50 (DU-145 prostate): 6.93 µM | TGI (DU-145 prostate): 21 µM

CC(=O)O[C@H]1CC[C@]2(C)C3C(=O)C[C@]4(C)[C@@H](C(C)CCC(=O)O)CC[C@@]4(C)[C@@H]3CC[C@H]2C1(C)C (stereo not given in full)
GI50 (LOX IMVI melanoma): 7.64 µM | TGI (LOX IMVI melanoma): 20.7 µM | GI50 (MCF7 breast): 20.7 µM | TGI (MCF7 breast): > 50 µM | GI50 (NCI-H23 lung): 19.1 µM | TGI (NCI-H23 lung): > 50 µM | GI50 (UACC-257 melanoma): 13.3 µM | TGI (UACC-257 melanoma): 33.9 µM | GI50 (UO-31 renal): 40.7 µM | TGI (UO-31 renal): > 50 µM | GI50 (HOP-62 NSCLC): 27.2 µM | TGI (HOP-62 NSCLC): > 50 µM | GI50 (SK-MEL-2 melanoma): 45.8 µM | TGI (SK-MEL-2 melanoma): > 50 µM | GI50 (HT29 colon): 18.6 µM | TGI (HT29 colon): > 50 µM | GI50 (HCT-15 colon): 11.7 µM | TGI (HCT-15 colon): 46.9 µM | GI50 (DU-145 prostate): 19.7 µM | TGI (DU-145 prostate): > 50 µM
